Assay results: ChEMBL document CHEMBL2094260, “Malaria Box Tuberculosis Screening Data”
Values after ≈ are worked out from the molar mass of the structure shown.

Key:
[1] = system: Mycobacterium tuberculosis; experiment: MMV: Screen against Mtb, single point, replicating, at 25uM; type: functional
[2] = system: Mycobacterium tuberculosis; experiment: MMV: Screen against Mtb, single point, non replicating, at 25uM; type: functional
[3] = system: Mycobacterium tuberculosis; experiment: MMV: CRC and MIC90 against Mtb (non replicating); type: functional
[4] = system: Mycobacterium tuberculosis; experiment: MMV: CRC and MIC90 against Mtb (replicating); type: functional
[5] = MMV: Cytotoxicity CRC and LD50 against HepG2; type: toxicity, cell-based; conditions: human, HepG2 cells; read-out: LD50 (the source's name)

| Structure (SMILES) | inhibition at 25 µM [1] [%] | inhibition at 25 µM [2] [%] | MIC90 [3] [µM] | MIC90 [4] [µM] | CC50 [5] [µM] |
| --- | --- | --- | --- | --- | --- |
| Brc1ccc(Nc2nc3ccccc3nc2Nc2ccc(Br)cc2)cc1 | 101 | 100 | 11.5 (≈ 5.41 µg/mL) | 3.73 (≈ 1.75 µg/mL) | 2.69 |
| CC(=O)c1ccc(NC(=O)CSc2nc(-c3ccccc3Cl)ns2)cc1 | 96.2 | 13.4 | > 100 | 14 (≈ 5.65 µg/mL) | 41 |
| O=C1c2ccc3c4c(ccc(c24)C(=O)N1CCCCO)C(=O)N(CCCCO)C3=O | 89.3 | 39.6 | 79.1 (≈ 32.5 µg/mL) | 36.5 (≈ 15 µg/mL) | 0.904 |
| Cc1cc(Nc2cccc(F)c2)nc(NCc2ccccc2)n1 | 98.3 | 5.92 | > 100 | 16.4 (≈ 5.06 µg/mL) | 7.18 |
| Nc1ccc(-c2nc3cc(Oc4ccc(Oc5ccc6[nH]c(-c7ccc(N)cc7)nc6c5)cc4)ccc3[nH]2)cc1 | 98.8 | 11.8 | > 100 | 19.2 (≈ 10.1 µg/mL) | 5.37 |
| CCOc1ccc2nc(C)cc(Nc3ccc(Br)cc3)c2c1 | 95.7 | 11.1 | > 100 | 18.7 (≈ 6.68 µg/mL) | 3.95 |
| c1ccc(CNc2nc(Nc3ccccc3)nc3ccccc23)cc1 | 96.2 | 21.2 | 39.4 (≈ 12.9 µg/mL) | 7.46 (≈ 2.43 µg/mL) | 4.16 |
| CN1CCN(c2ccc(Nc3c4ccccc4nc4ccccc34)cc2)CC1 | 63.8 | 44.1 | 27.7 (≈ 10.2 µg/mL) | 45.1 (≈ 16.6 µg/mL) | 0.654 |
| COc1ccc(C2c3ccc4ccccc4c3Oc3ncn(CCCN(C)C)c(=N)c32)cc1 (stereo not given) | 98.1 | 47.1 | > 100 | 16.9 (≈ 7.45 µg/mL) | 1.53 |
| COCCNCC(O)Cn1c2ccc(Cl)cc2c2cc(Cl)ccc21 (stereo not given) | 99.4 | 26.7 | 56.1 (≈ 20.6 µg/mL) | 11.6 (≈ 4.26 µg/mL) | 3.92 |
| COc1ccc(Nc2cc(C)nc(NCc3ccccc3)n2)cc1 | 95.5 | 22.6 | > 100 | 18 (≈ 5.77 µg/mL) | 6.9 |
| Cc1cc(N(C)C)nc(Nc2ccc(NC(=O)Nc3ccccc3)cc2)n1 | 98.1 | 3.62 | > 100 | 19.3 (≈ 7 µg/mL) | 11.2 |
| COc1ccc(Nc2nc(NCc3ccccc3)c3ccccc3n2)cc1 | 98 | 53.9 | 48.7 (≈ 17.4 µg/mL) | 7.33 (≈ 2.61 µg/mL) | 2.59 |
| CCOC(=O)c1cnc2ccc(OC)cc2c1Nc1ccc(N2CCN(C)CC2)cc1 | 78.8 | 31.3 | > 100 | 35.9 (≈ 15.1 µg/mL) | 22.8 |
| Cc1cc(N2CCCC2)nc(Nc2ccc(NC(=O)CCc3ccccc3)cc2)n1 | 82.1 | 9.94 | > 100 | 14 (≈ 5.62 µg/mL) | 2.64 |
| CSc1ccccc1C(=O)Nc1nc(-c2ccccn2)cs1 | 68.2 | 66.8 | 79 (≈ 25.9 µg/mL) | 51.2 (≈ 16.8 µg/mL) | 12.1 |
| O=C(Nc1ccc(F)c(Cl)c1)Nc1ccc(Cl)c(Cl)c1 | 97.5 | 100 | 11 (≈ 3.67 µg/mL) | 4.03 (≈ 1.34 µg/mL) | 4.33 |
| N=c1n(CCN2CCCCC2)c2ccccc2n1CC(=O)c1ccc(Cl)c(Cl)c1 | 96.3 | 17.6 | > 100 | 21.1 (≈ 9.1 µg/mL) | 6.5 |

| Structure (SMILES) | inhibition at 25 µM [1] [%] | inhibition at 25 µM [2] [%] | MIC90 [3] [µM] | MIC90 [4] [µM] | CC50 [5] [µM] |
| --- | --- | --- | --- | --- | --- |
| Cc1ccc2cc3c(N)c4c(C)ccc(C)c4nc3nc2c1 | 101 | 7.35 | > 100 | 6.06 (≈ 1.74 µg/mL) | 2.84 |
| COc1ccc(-c2cc(=O)oc3c4c(ccc23)OCN(Cc2ccc(F)cc2)C4)cc1 | 90.5 | 22.3 | > 100 | 37.5 (≈ 15.7 µg/mL) | 40.5 |
| Cc1ccc(Cl)cc1N1CCN(CCCNC(=O)C2CCN(c3nc4ccccc4[nH]3)CC2)CC1 | 75.7 | 26.9 | > 100 | 39 (≈ 19.3 µg/mL) | 4.79 |
| CCn1nc(-c2ccc(C(=O)OC)cc2)nc2c(=O)n(C)c(=O)nc1-2 | 55.9 | 65.1 | 33.6 (≈ 11.5 µg/mL) | > 100 | 1.36 |
| O=C(Nc1ccc(Cl)c(Cl)c1)Nc1ccc(Cl)c(Cl)c1 | 92.6 | 99.8 | 10.3 (≈ 3.61 µg/mL) | 3.89 (≈ 1.36 µg/mL) | 6.5 |
| C[n+]1c2ccccc2nc2ccc(NCCO)cc21 | 84.9 | 37.7 | > 100 | 6 | 6.65 |
| CCCCCCn1c(=N)n(CC(O)COc2cccc(C)c2)c2ccccc21 (stereo not given) | 98.5 | 31.3 | 27.9 (≈ 10.6 µg/mL) | 9.69 (≈ 3.7 µg/mL) | 3.27 |
| Cc1ccc(Nc2nc(N)c3ccccc3n2)cc1Cl | 96.6 | 7.17 | > 100 | 24.7 (≈ 7.03 µg/mL) | 10.9 |
| COc1cccc(Nc2nc(NCCO)c3ccccc3n2)c1 | 81.8 | 14.8 | > 100 | 27.3 (≈ 8.47 µg/mL) | 26 |
| Cc1cc(NCCN2CCCCC2)c2ccc3ccccc3c2n1 | 71.1 | 15.5 | > 100 | 39.1 (≈ 12.5 µg/mL) | 2.04 |
| O=C(Nc1cccc(C(F)(F)F)c1)c1cc(Cl)ccc1O | 95.9 | 102 | 3.46 (≈ 1.09 µg/mL) | 3.87 (≈ 1.22 µg/mL) | 0.99 |
| O=C(Nc1ccc(Br)cc1)Nc1cccc(Cl)c1 | 59.6 | 38.6 | > 100 | 44.6 (≈ 14.5 µg/mL) | 18.6 |
| CCN(CC)CCCNc1nc(-c2ccc(Cl)cc2)nc2ccccc12 | 95.3 | 17.1 | > 100 | 24.7 (≈ 9.11 µg/mL) | 2.72 |
| CC(C)(C)CC(C)(C)NCC(O)COc1ccc(Cl)cc1Cl (stereo not given) | 98.5 | 30.2 | 40.2 (≈ 14 µg/mL) | 4.47 (≈ 1.56 µg/mL) | 3.51 |
| OCCNc1nc(Nc2ccc(Cl)c(Cl)c2)nc2ccccc12 | 94 | 84.5 | 20.2 (≈ 7.05 µg/mL) | 3.59 (≈ 1.25 µg/mL) | 7.18 |
| CC(C)(C)CC(C)(C)NCC(O)COc1ccc2c(c1)CCC2 (stereo not given) | 70.7 | -3.5 | > 100 | 35.6 (≈ 11.4 µg/mL) | 8.32 |
| COc1ccc(C2NCCc3c2[nH]c2ccccc32)cc1CN1CCN(c2ccc(F)cc2)CC1 (stereo not given) | 87.9 | 15.9 | > 100 | 25.9 (≈ 12.2 µg/mL) | 2.28 |
